What all share (type): cell-based
In experiment [1] the test system is primary human mesenchymal stem cells (hMSCs). Briefly: Induction of chondrogenesis in primary human mesenchymal stem cells (chondrogenic nodules, Rhodamine B / Nile Red). The note with it: 6 days; for EC50: concentration required to induce 50% levels of chondrogenesis vs TGF-β3, read-out: Conc (nM) of 50% TGF-β3 activity; for Emax: relative to TGF-β3 (10 ng/mL) positive control, read-out: Max. Activity as % TGF-β3 activity. The source says:
Representative compounds were screened using primary human mesenchymal stem cells (hMSCs) to determine their ability to induce chondrogenesis (process by which cartilage is developed).
Human Mesenchymal Stem Cell Culture: Primary human mesenchymal stem cells (hMSCs) were purchased from Lonza (Walkersville, Md.) and expanded in Mesenchymal Stem Cell Growth Media (Lonza). Cells between passage 3 and 6 were used for the experiments.
To image chondrogenic nodules, the cells were fixed using 4% formaldehyde (Electron Microscopy Sciences), and stained with 2 μg/mL Rhodamine B (Sigma-Aldrich) and 20 μM Nile Red (Sigma-Aldrich) [Johnson K., et. al, A Stem Cell-Based Approach to Cartilage Repair, Science, (2012). […] Number of nodules in each well was normalized to the average of 3 DMSO treated wells on the same plate using Excel (Microsoft Inc.). The normalized averages (fold change over DMSO) of 3 replicate wells for each compound concentration were calculated. Due to solubility limitations of some of the compounds, curve fitting was incomplete leading to inaccurate EC50 determinations.
Using TGF-β3 as a positive control, the concentration of representative compounds required to induce 50% levels of chondrogenesis is reported. In addition, the maximum activity of each compound and the respective dose that each compound reached maximum chondrogenesis activity is reported.

The subject of experiment [2] is IL-6 in THP-1 cells. Kind of experiment: IL-6 inhibition in LPS-stimulated THP-1 human monocyte cells (HTRF). The note with it: for EC50: IL-6 inhibition, LPS-stimulated THP-1 cells, HTRF, 10-point dose-response starting from 10 μM; for inhibition at 10 µM: THP-1, read-out: percentage in parentheses beside EC50 >10. In a few lines:
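THP-1 cells were serum-reduced (1% FBS, 24 h), plated at 5000 cells/well with compound for 2 h at 37 °C, then stimulated 22 h with 500 ng/mL LPS. Secreted IL-6 was quantified by HTRF (665/620 nm ratio). Signals were normalised to DMSO, and EC50 was fitted by four-parameter nonlinear regression.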
(In general: In TR-FRET formats the signal depends on donor and acceptor labels being close together.)

Experiment [3] has as its system LL29 cells (primary human fibroblasts derived from IPF patients), α-smooth muscle actin. Kind of experiment: Inhibition of the fibrotic process: αSMA staining in TGF-β1 treated primary human fibroblasts from IPF patients (LL29 cells). The note with it: Fibroblast; for EC50: 96 h, LL29 cells, TGF-β1 20 ng/mL, 4 days, % αSMA positive cells; for inhibition at 10 µM: read-out: percent inhibition at 10 μM. In a few lines:
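IPF-patient-derived LL29 lung fibroblasts in F12 with 1% FBS, stimulated with TGF-β1 alongside compound; TGF-β1 plus DMSO wells served as controls. After 4 days, nuclei stained with 1 μM SYTOX green for 30 min at room temperature, alongside αSMA staining.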

Experiment [4] deals with SW480 colon cancer cells. Briefly: Cell viability assay (CellTiter-Blue) in SW480 colon cancer cells. The note with it: Homo sapiens; for EC50: 96 h, SW480 cell viability, four days, CellTiter-Blue; for inhibition at 10 µM: SW480, read-out: percent inhibition at 10 μM. The method in brief: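 Fluorescence from resazurin reduced to resorufin by metabolically active cells was the read-out, taken after ~3 h with CellTiter-Blue.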

The test system of experiment [5] is Wnt activity (Sp5-Luc reporter, TCF/LEF binding sites) in SW480 colon carcinoma cells. Briefly: Wnt activity screening assay: Sp5-Luc reporter gene assay in SW480 cells. The note with it: Homo sapiens; for inhibition at 10 µM: SW480, read-out: percent inhibition at 10 μM; for EC50: Sp5-Luc reporter, SW480 cells, overnight incubation. The method in brief:
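SW480 cells stably carrying a luciferase reporter under a human Sp5 promoter with eight TCF/LEF sites, plated at 4,000 cells/well in 1% FBS medium. Luminescence read with BrightGlo, normalized to DMSO-treated cells; EC50 from four-parameter variable-slope nonlinear regression.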
In general terms: Reporter assays use an easily measured gene product as a stand-in for the process of interest.

Each structure is given as a SMILES string.

With `O=C(Nc1cncc(-c2cnc3[nH]nc(-c4cc5cnccc5[nH]4)c3c2)c1)c1ccccc1` [Compound 263, N-(5-(3-(1H-Pyrrolo[3,2-c]pyridin-2-yl)-1H-pyrazolo[3,4-b]pyridin-5-yl)pyridin-3-yl)benzamide], the EC50 in experiment [1] is 30 nM; in experiment [2] it was > 10000 nM; in experiment [3], > 10000 nM; in experiment [4], > 10000 nM; in experiment [5], > 10000 nM. Further, in experiment [1], the Emax turned out to be 70%. Also, the inhibition at 10 µM in experiment [2] was found to be 30%; in experiment [3], 0%; in experiment [4], 24.6%; in experiment [5], 65.5%.

For the molecule `c1cc2[nH]c(-c3n[nH]c4ncc(-c5cncc(CN6CCCCC6)c5)cc34)cc2c(N2CCCCC2)n1` [Compound 183, 3-(4-(Piperidin-1-yl)-1H-pyrrolo[3,2-c]pyridin-2-yl)-5-(5-(piperidin-1-ylmethyl)pyridin-3-yl)-1H-pyrazolo[3,4-b]pyridine], the EC50 worked out at 900 nM in experiment [1]; 4800 nM in experiment [2]; 1220 nM in experiment [3]; 827 nM in experiment [4]; 3850 nM in experiment [5]. Besides, the Emax in experiment [1] amounted to 62%.

Consider `O=C(Nc1cncc(-c2cnc3[nH]nc(-c4cc5c(-c6cccs6)nccc5[nH]4)c3c2)c1)C1CCC1` [Compound 357, N-(5-(3-(4-(Thiophen-2-yl)-1H-pyrrolo[3,2-c]pyridin-2-yl)-1H-pyrazolo[3,4-b]pyridin-5-yl)pyridin-3-yl)cyclobutanecarboxamide], for which the EC50 in experiment [1] was found to be 100 nM; in experiment [2], 179 nM; in experiment [3], 609 nM; in experiment [4], 489 nM; in experiment [5] it was 473 nM. The Emax in experiment [1] worked out at 82%.

For `CCC(=O)Nc1cncc(-c2cnc3[nH]nc(-c4cc5cnccc5[nH]4)c3c2)c1` [Compound 253, N-(5-(3-(1H-Pyrrolo[3,2-c]pyridin-2-yl)-1H-pyrazolo[3,4-b]pyridin-5-yl)pyridin-3-yl)propionamide], the Emax in experiment [1] came out at 17%. Besides, the EC50 in experiment [2] was 1000 nM; in experiment [3], 3710 nM; in experiment [4], > 10000 nM; in experiment [5], 960 nM. Further, the inhibition at 10 µM in experiment [4] was 50.3%.

Regarding `CC(C)CC(=O)Nc1cncc(-c2cnc3[nH]nc(-c4cc5c(-c6cc(F)cc(CNS(C)(=O)=O)c6)nccc5[nH]4)c3c2)c1` [Compound 478, N-(5-(3-(4-(3-Fluoro-5-(methylsulfonamidomethyl)phenyl)-1H-pyrrolo[3,2-c]pyridin-2-yl)-1H-pyrazolo[3,4-b]pyridin-5-yl)pyridin-3-yl)-3-methylbutanamide], the EC50 is 300 nM in experiment [1]; 537 nM in experiment [2]; > 10000 nM in experiment [3]; 4090 nM in experiment [4]; 1960 nM in experiment [5]. For the same molecule, in experiment [1], the Emax worked out at 52%. Further, the inhibition at 10 µM in experiment [3] came to 0%.

Regarding `Nc1cncc(-c2cnc3[nH]nc(-c4cc5c(-c6ccccc6F)nccc5[nH]4)c3c2)c1` [Compound 59, 5-(3-(4-(2-Fluorophenyl)-1H-pyrrolo[3,2-c]pyridin-2-yl)-1H-pyrazolo[3,4-b]pyridin-5-yl)pyridin-3-amine], the EC50 in experiment [1] amounted to 30 nM; in experiment [2], 198 nM; in experiment [3], 2280 nM; in experiment [4], 762 nM; in experiment [5], 197 nM. For the same molecule, the Emax in experiment [1] was 86%.

Consider `c1cncc(-c2cnc3[nH]nc(-c4cc5c(N6CCCCC6)nccc5[nH]4)c3c2)c1` [Compound 172, 3-(4-(Piperidin-1-yl)-1H-pyrrolo[3,2-c]pyridin-2-yl)-5-(pyridin-3-yl)-1H-pyrazolo[3,4-b]pyridine], for which the EC50 was 900 nM in experiment [1]; 484 nM in experiment [2]; 1330 nM in experiment [3]; 1160 nM in experiment [4]; 4020 nM in experiment [5]. The Emax in experiment [1] turned out to be 169%.

`CC(C)Nc1cncc(-c2cnc3[nH]nc(-c4cc5c(-c6cc(F)cc(CNS(C)(=O)=O)c6)nccc5[nH]4)c3c2)c1` [Compound 488, N-(3-Fluoro-5-(2-(5-(5-(isopropylamino)pyridin-3-yl)-1H-pyrazolo[3,4-b]pyridin-3-yl)-1H-pyrrolo[3,2-c]pyridin-4-yl)benzyl)methanesulfonamide]: the EC50 in experiment [1] is 100 nM; in experiment [2], > 10000 nM; in experiment [3], 860 nM; in experiment [4], 1340 nM; in experiment [5] it was 486 nM. The Emax in experiment [1] worked out at 66%. In addition, the inhibition at 10 µM in experiment [2] worked out at 54.6%.

Take `Fc1ccccc1-c1nccc2[nH]c(-c3n[nH]c4ncc(-c5cncnc5)cc34)cc12` [Compound 83, 3-(4-(2-Fluorophenyl)-1H-pyrrolo[3,2-c]pyridin-2-yl)-5-(pyrimidin-5-yl)-1H-pyrazolo[3,4-b]pyridine]: the Emax in experiment [1] came out at 36%. Moreover, the EC50 in experiment [2] was > 10000 nM; in experiment [3], 1210 nM; in experiment [4], 2080 nM; in experiment [5], 4060 nM. The inhibition at 10 µM in experiment [2] was found to be 28.3%.

`CN1CCN(c2nccc3[nH]c(-c4n[nH]c5ncc(-c6cncc(CN7CCCCC7)c6)cc45)cc23)CC1` [Compound 239, 3-(4-(4-Methylpiperazin-1-yl)-1H-pyrrolo[3,2-c]pyridin-2-yl)-5-(5-(piperidin-1-ylmethyl)pyridin-3-yl)-1H-pyrazolo[3,4-b]pyridine]: in experiment [1], the Emax is 24%. The EC50 in experiment [2] is 3280 nM; in experiment [3] it was > 10000 nM; in experiment [4] it was 3800 nM; in experiment [5] it was > 10000 nM. In addition, the inhibition at 10 µM turned out to be 28.8% in experiment [3] and 55% in experiment [5].

For the molecule `c1cc2[nH]c(-c3n[nH]c4ncc(-c5cncc(CN6CCCCC6)c5)cc34)cc2cn1` [Compound 267, 5-(5-(Piperidin-1-ylmethyl)pyridin-3-yl)-3-(1H-pyrrolo[3,2-c]pyridin-2-yl)-1H-pyrazolo[3,4-b]pyridine], the Emax in experiment [1] worked out at 40%. Besides, the EC50 in experiment [2] was 1560 nM; in experiment [3], 1850 nM; in experiment [4] it was 1240 nM; in experiment [5] it was 1540 nM.

Regarding `O=C(Nc1cncc(-c2cnc3[nH]nc(-c4cc5c(-c6ccccc6F)nccc5[nH]4)c3c2)c1)c1ccccc1` [Compound 67, N-(5-(3-(4-(2-Fluorophenyl)-1H-pyrrolo[3,2-c]pyridin-2-yl)-1H-pyrazolo[3,4-b]pyridin-5-yl)pyridin-3-yl)benzamide], the EC50 in experiment [1] was 10 nM; in experiment [2], > 10000 nM; in experiment [3] it was > 10000 nM; in experiment [4], 1620 nM; in experiment [5], 1980 nM. The Emax in experiment [1] was 101%. The inhibition at 10 µM in experiment [2] stood at 41.4%; in experiment [3], 6.3%.

Take `O=C(Nc1cncc(-c2cnc3[nH]nc(-c4cc5c(-c6ccc(F)cc6)nccc5[nH]4)c3c2)c1)C1CCC1` [Compound 49, N-(5-(3-(4-(4-Fluorophenyl)-1H-pyrrolo[3,2-c]pyridin-2-yl)-1H-pyrazolo[3,4-b]pyridin-5-yl)pyridin-3-yl)cyclobutanecarboxamide]: the EC50 turned out to be 10 nM in experiment [1]; 1480 nM in experiment [2]; 360 nM in experiment [3]; 595 nM in experiment [4]; 1170 nM in experiment [5]. The Emax in experiment [1] was 208%.

In the case of `CCCC(=O)Nc1cncc(-c2cnc3[nH]nc(-c4cc5c(-c6ccccc6F)nccc5[nH]4)c3c2)c1` [Compound 73, N-(5-(3-(4-(2-Fluorophenyl)-1H-pyrrolo[3,2-c]pyridin-2-yl)-1H-pyrazolo[3,4-b]pyridin-5-yl)pyridin-3-yl)butyramide], the Emax in experiment [1] amounted to 53%. Moreover, the EC50 was determined as 36 nM in experiment [2], 2660 nM in experiment [3], 348 nM in experiment [4] and 472 nM in experiment [5].

(Values after patent publication US10226448B2, “3-(1H-pyrrolo[3,2-C]pyridin-2-yl)-1H-pyrazolo[3,4-B]pyridines and therapeutic uses thereof” (Samumed, LLC, priority 2015, dated 2019).)
